Measurements as given in ChEMBL document CHEMBL5512674, “Novel Acyl Thiourea-Based Hydrophobic Tagging Degraders Exert Potent Anti-Influenza Activity through Two Distinct Endonuclease Polymerase Acidic-Targeted Degradation Pathways” (J Med Chem, 2024).
Calls of active or inactive are those of the source. The calls are words filed in the database; no cut-off is given here.

How the values were obtained:
[1] = target: T1, von Hippel-Lindau disease tumor suppressor/Polymerase basic protein 2 (Influenza A virus (strain A/Puerto Rico/8/1934 H1N1)) (UniProt P40337+P03428); assay: PROTAC activity at Influenza A virus A/WSN/33(H1N1) flag tagged Polymerase basic protein 2/VHL (unknown origin) expressed in HEK293T cells assessed as degradation of PB2 expression at 1 ug/ml incubated for 24 hrs by Western blotting analysis; format: cell-based; details: dose 1.0 µg/ml
[2] = target: T1, von Hippel-Lindau disease tumor suppressor/Polymerase basic protein 2 (Influenza A virus (strain A/Puerto Rico/8/1934 H1N1)); assay: PROTAC activity at Influenza A virus A/WSN/33(H1N1) flag tagged Polymerase basic protein 2/VHL (unknown origin) expressed in HEK293T cells assessed as degradation of PB2 expression at 10 ug/ml incubated for 24 hrs by Western blotting analysis; format: cell-based; details: dose 10.0 µg/ml
Influenza B virus [3] = assay: Anti-influenza activity against Influenza B virus Yamagata/16/88 infected in HEK293T cells assessed as reduction in virus-induced cytopathic effect incubated for 48 hrs by CCK-8 assay; format: functional, organism-based; details: Yamagata/16/88, HEK-293T
[4] = target: T2, von Hippel-Lindau disease tumor suppressor/Polymerase basic protein 1 (Influenza A virus (strain A/Puerto Rico/8/1934 H1N1)) (UniProt P03431+P40337); assay: PROTAC activity at Influenza A virus A/WSN/33(H1N1) flag tagged Polymerase basic protein 1/VHL (unknown origin) expressed in HEK293T cells assessed as degradation of PB1 expression at 10 ug/ml incubated for 24 hrs by Western blotting analysis; format: cell-based; details: dose 10.0 µg/ml
Influenza B virus [5] = assay: Anti-influenza activity against Influenza B virus Victoria/2/87 infected in HEK293T cells assessed as reduction in virus-induced cytopathic effect incubated for 48 hrs by CCK-8 assay; format: functional, organism-based; details: Victoria/2/87, HEK-293T
Influenza A virus [6] = assay: Anti-influenza activity against Influenza A virus A/WSN/33(H1N1) infected in HEK293T cells assessed as reduction in virus-induced cytopathic effect incubated for 48 hrs by CCK-8 assay; format: functional, organism-based; details: HEK-293T
[7] = target: von Hippel-Lindau disease tumor suppressor/Polymerase acidic protein (Influenza A virus (A/Puerto Rico/8/1934(H1N1)), UniProt P03433+P40337); assay: PROTAC activity at Influenza A virus A/WSN/33(H1N1) flag tagged Polymerase acidic protein/VHL (unknown origin) expressed in HEK293T cells assessed as degradation of PA expression incubated for 24 hrs by Western blotting analysis; format: cell-based
[8] = Selectivity index, ratio of CC50 for cytotoxicity against human HEK293T cells to EC50 for anti-influenza activity against Influenza A virus A/WSN/33(H1N1) infected in HEK293T cells assessed as reduction in virus-induced cytopathic effect; format: toxicity, cell-based; details: read-out: Ratio CC50/EC50
[9] = target: T2, von Hippel-Lindau disease tumor suppressor/Polymerase basic protein 1 (Influenza A virus (strain A/Puerto Rico/8/1934 H1N1)); assay: PROTAC activity at Influenza A virus A/WSN/33(H1N1) flag tagged Polymerase basic protein 1/VHL (unknown origin) expressed in HEK293T cells assessed as degradation of PB1 expression at 1 ug/ml incubated for 24 hrs by Western blotting analysis; format: cell-based; details: dose 1.0 µg/ml
[10] = target: T3, von Hippel-Lindau disease tumor suppressor/Polymerase acidic protein (Influenza A virus (A/Puerto Rico/8/1934(H1N1))) (UniProt P03433+P40337); assay: PROTAC activity at Influenza A virus A/WSN/33(H1N1) flag tagged Polymerase acidic protein/VHL (unknown origin) expressed in HEK293T cells assessed as degradation of PA expression at 10 uM incubated for 24 hrs by Western blotting analysis; format: cell-based
[11] = Cytotoxicity against human HEK293T cells assessed as reduction in cell viability incubated for 48 hrs by CCK-8 assay; format: toxicity, cell-based, HEK-293T
Influenza A virus [12] = assay: Anti-influenza activity against Influenza A virus H3N2 infected in HEK293T cells assessed as reduction in virus-induced cytopathic effect incubated for 48 hrs by CCK-8 assay; format: functional, organism-based; details: H3N2, HEK-293T
[13] = target: T2, von Hippel-Lindau disease tumor suppressor/Polymerase basic protein 1 (Influenza A virus (strain A/Puerto Rico/8/1934 H1N1)); assay: PROTAC activity at Influenza A virus A/WSN/33(H1N1) flag tagged Polymerase basic protein 1/VHL (unknown origin) expressed in HEK293T cells assessed as degradation of PB1 expression at 0.1 to 10 uM incubated for 24 hrs by Western blotting analysis; format: cell-based; details: dose 0.1-10 µM
[14] = target: T1, von Hippel-Lindau disease tumor suppressor/Polymerase basic protein 2 (Influenza A virus (strain A/Puerto Rico/8/1934 H1N1)); assay: PROTAC activity at Influenza A virus A/WSN/33(H1N1) flag tagged Polymerase basic protein 2/VHL (unknown origin) expressed in HEK293T cells assessed as degradation of PB2 expression at 0.1 to 10 uM incubated for 24 hrs by Western blotting analysis; format: cell-based; details: dose 0.1-10 µM
Influenza A virus [15] = assay: Anti-influenza activity against Influenza A virus A/WSN/33(H1N1) infected in MDCK cells assessed as downregulation of nucleoprotein expression at 100 nM incubated for 24 hrs by Western blotting analysis relative to control; format: functional
[16] = Cytotoxicity against dog MDCK cells assessed as reduction in cell viability incubated for 48 hrs by CCK-8 assay; format: toxicity, cell-based, Canis lupus familiaris
[17] = target: T3, von Hippel-Lindau disease tumor suppressor/Polymerase acidic protein (Influenza A virus (A/Puerto Rico/8/1934(H1N1))); assay: PROTAC activity at Influenza A virus A/WSN/33(H1N1) flag tagged Polymerase acidic protein/VHL (unknown origin) expressed in HEK293T cells assessed as degradation of PA expression at 10 uM incubated for 16 hrs by Western blotting analysis; format: cell-based
[18] = target: T3, von Hippel-Lindau disease tumor suppressor/Polymerase acidic protein (Influenza A virus (A/Puerto Rico/8/1934(H1N1))); assay: PROTAC activity at Influenza A virus A/WSN/33(H1N1) flag tagged Polymerase acidic protein/VHL (unknown origin) expressed in HEK293T cells assessed as degradation of PA expression at 5 uM incubated for 24 hrs by Western blotting analysis; format: cell-based

Structure (SMILES)	Activity [1]	Activity [2]	EC50 (Influenza B virus [3])	Activity [4]	EC50 (Influenza B virus [5])	EC50 (Influenza A virus [6])	DC50 [7]	selectivity ratio [8]	Activity [9]	Activity [10]	CC50 at 48 h [11]	EC50 (Influenza A virus [12])	Activity [13]	Activity [14]	Activity (Influenza A virus [15])	CC50 at 48 h [16]	Activity [17]	Activity [18]
CC(C)(C)OC(=O)NCCCC[C@H](NC(=O)OC(C)(C)C)C(=O)NCCCCCCCCC(=O)Nc1ccc(NC(=S)NC(=O)c2ccc(C(C)(C)C)cc2)cc1	inactive	inactive	130 nM	inactive	167 nM	21 nM	650 nM	> 4760	inactive	Active	> 100000 nM	> 10000 nM	inactive	inactive	–	–	–	–
CCOC(=O)C1=C[C@@H](OC(CC)CC)[C@H](NC(C)=O)[C@@H](N)C1 [OSELTAMIVIR]	–	–	–	–	–	–	–	–	–	–	–	–	–	–	44%	> 200000 nM	–	–
Cc1ncsc1-c1ccc(CNC(=O)[C@@H]2C[C@@H](O)CN2C(=O)C(NCCCCCCCC(=O)Nc2ccc(NC(=S)NC(=O)c3ccc(C(C)(C)C)cc3)cc2)C(C)(C)C)cc1 (mixture of isomers)	–	–	–	–	–	> 10000 nM	–	–	–	–	–	–	–	–	–	–	Active	Active
